Test results from BindingDB's records for patent US20250313563 (The Broad Institute, 2025).
“And” between values parts separate entries of the source, which are not always exact repeats. Equal entries are not always repeated.

Experiments:
[1] = target: Glycogen synthase kinase-3 alpha (Homo sapiens, UniProt P49840); test: TR-FRET Assay
In short: (§1)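 30 min preinc w/ cpd in assay buffer → kinase rxn → EDTA quench → add detection mix (40 nM SA-d2, 2 nM Tb-pSer641 Ab) → TR-FRET read.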

[2] = target: Glycogen synthase kinase-3 beta (Homo sapiens, UniProt P49841); test: TR-FRET Assay
Chain of Glycogen synthase kinase-3 beta (P49841 whole entry): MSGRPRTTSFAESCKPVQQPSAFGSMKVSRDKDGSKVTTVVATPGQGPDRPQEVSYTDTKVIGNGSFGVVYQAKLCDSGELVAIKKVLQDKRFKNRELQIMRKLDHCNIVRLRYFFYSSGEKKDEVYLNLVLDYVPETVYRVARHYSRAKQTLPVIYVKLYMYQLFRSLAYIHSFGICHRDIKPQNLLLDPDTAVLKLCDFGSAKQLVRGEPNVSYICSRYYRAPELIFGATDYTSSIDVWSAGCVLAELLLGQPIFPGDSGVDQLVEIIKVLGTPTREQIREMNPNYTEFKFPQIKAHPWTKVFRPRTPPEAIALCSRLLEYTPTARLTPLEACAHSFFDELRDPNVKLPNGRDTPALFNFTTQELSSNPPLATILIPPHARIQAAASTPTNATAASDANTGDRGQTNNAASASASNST
In short: as §1

Chain of Glycogen synthase kinase-3 alpha (P49840 whole entry): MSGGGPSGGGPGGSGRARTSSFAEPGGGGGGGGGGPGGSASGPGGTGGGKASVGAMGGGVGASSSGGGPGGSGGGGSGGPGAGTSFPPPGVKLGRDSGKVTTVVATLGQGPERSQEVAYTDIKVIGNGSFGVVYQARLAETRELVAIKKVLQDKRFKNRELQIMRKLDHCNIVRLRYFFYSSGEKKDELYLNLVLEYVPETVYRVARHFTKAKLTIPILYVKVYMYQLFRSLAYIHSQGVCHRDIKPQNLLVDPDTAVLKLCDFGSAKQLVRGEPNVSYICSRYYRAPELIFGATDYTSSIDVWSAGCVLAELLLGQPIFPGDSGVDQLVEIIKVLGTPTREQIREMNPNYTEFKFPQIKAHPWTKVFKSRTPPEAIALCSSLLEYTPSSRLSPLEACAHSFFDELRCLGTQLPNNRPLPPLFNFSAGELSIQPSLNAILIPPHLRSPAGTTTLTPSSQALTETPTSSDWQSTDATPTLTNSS

SMILES | IC50 [1] | IC50 [2]
CN1C[C@@]2(C3=C(CC(C)(C)CC3=O)NC3N=NC(C4CC(F)(F)C4)=C32)c2ccccc21 (stereo partly drawn) [US20250313563, Compound 119048] | 1000 to 5000 nM | 100 to 1000 nM
CCC1(c2cccc(N(C)c3cccnc3)c2)C2=CN=NC2NC2=C1C(=O)CC(C)(C)C2 (stereo not drawn) [US20250313563, Compound 865168] | < 100 nM | < 100 nM
CC[C@]1(c2cccc(N(C)c3cnccn3)c2)C2=CN=NC2NC2=C1C(=O)CC(C)(C)C2 (stereo partly drawn) [US20250313563, Compound 915316] | < 100 nM | < 100 nM
CC[C@]1(c2cccc(-c3cncn3C)c2)C2=C(CC(C)(C)CC2=O)NC2N=NC(C)=C21 (stereo partly drawn) [US20250313563, Compound 913037] | < 100 nM | 100 to 1000 nM
CCC1(c2cccc(-c3ccnc(C)c3)c2)C2=C(CC(C)(C)CC2=O)NC2N=NC(C)=C21 (stereo not drawn) [US20250313563, Compound 883987] | < 100 nM | 100 to 1000 nM
CC[C@]1(c2cccc(C3=CN=NC3)c2)C2=C(CC(C)(C)CC2=O)NC2N=NC(C)=C21 (stereo partly drawn) [US20250313563, Compound 913044] | 100 to 1000 nM | 100 to 1000 nM
CCC1(c2cccc(CN3CCCCC3)c2)C2=CN=NC2NC2=C1C(=O)CC(C)(C)C2 (stereo not drawn) [US20250313563, Compound 819560] | 1000 to 5000 nM | > 5000 nM
CC[C@@]1(c2cccc(N3CCOCC3)c2)C2=C(CC(C)(C)CC2=O)NC2N=NC(C)=C21 (stereo partly drawn) [US20250313563, Compound 889582] | 100 to 1000 nM | 1000 to 5000 nM
CCC1(c2cccc(S(=O)(=O)Cc3ccccc3)c2)C2=CN=NC2NC2=C1C(=O)CC(C)(C)C2 (stereo not drawn) [US20250313563, Compound 913258] | < 100 nM | < 100 nM
CC[C@]1(c2cccc(-c3cc(C)ncc3C)c2)C2=C(CC(C)(C)CC2=O)NC2N=NC(C)=C21 (stereo partly drawn) [US20250313563, Compound 913050] | < 100 nM | < 100 nM and 100 to 1000 nM
CC1(C)CC(=O)C2=C(C1)NC1=C(CN=N1)C21CCC2(CC2)CC1 [US20250313563, Compound 893312] | < 100 nM | < 100 nM
CC(=O)N1CCC2(CC1)C1=C(N=NC1)NC1=C2C(=O)CC(C)(C)C1 [US20250313563, Compound 826649] | 100 to 1000 nM | 1000 to 5000 nM
CC[C@@]1(c2cccc(N3CCC3)c2)C2=CN=NC2NC2=C1C(=O)CC(C)(C)C2 (stereo partly drawn) [US20250313563, Compound 889632] | > 5000 nM | > 5000 nM
CC[C@@]1(c2cccc(Br)c2)C2=C(C[C@@H](C)CC2=O)NC2N=NC(C(F)(F)F)=C21 (stereo partly drawn) [US20250313563, Compound 828849] | 100 to 1000 nM | 100 to 1000 nM
CCC1(c2ccccc2)C2=C(N=NC2)NC2=C1C(=O)C(C)(C)CC2 (stereo not drawn) [US20250313563, Compound 835310] | 100 to 1000 nM | 1000 to 5000 nM
CC[C@]1(c2ccccc2)C2=CN=NC2NC2=C1C(=O)[C@@H](C)C[C@@H]2C (stereo partly drawn) [US20250313563, Compound 865202] | > 5000 nM | > 5000 nM
CC[C@H]1C[C@@]2(CCO1)C1=C(N=NC1)NC1=C2C(=O)CC(C)(C)C1 [US20250313563, Compound 924311] | 100 to 1000 nM | 1000 to 5000 nM
CC[C@]1(c2cccc(N3C[C@H](C)[C@@H](C)C3)c2)C2=CN=NC2NC2=C1C(=O)CC(C)(C)C2 (stereo partly drawn) [US20250313563, Compound 924312] | 100 to 1000 nM | 1000 to 5000 nM
CC[C@]1(c2cccc(Br)c2)C2=C(C[C@H](C)CC2=O)NC2N=NC(C(F)(F)F)=C21 (stereo partly drawn) [US20250313563, Compound 828848] | < 100 nM | < 100 nM
CC[C@]1(c2cccc(C(F)(F)F)c2)C2=CN=NC2NC2=C1C(=O)C[C@H](C)C2 (stereo partly drawn) [US20250313563, Compound 810450] | < 100 nM and 100 to 1000 nM | < 100 nM and 1000 to 5000 nM

Next, values leading:

IC50 [1] | IC50 [2] | SMILES
< 100 nM | < 100 nM | CCC1(c2cccc(-c3cn(C)nc3C)c2)C2=C(CC(C)(C)NC2=O)NC2N=NC(C(F)(F)F)=C21 (stereo not drawn) [US20250313563, Compound 947567]
< 100 nM | < 100 nM | CCC1(c2cccc(N(C)c3ncccn3)c2)C2=C(CC(C)(C)NC2=O)NC2N=NC(Cl)=C21 (stereo not drawn) [US20250313563, Compound 949417]
< 100 nM | 100 to 1000 nM | CCC1(c2cccc(C(F)(F)F)c2)C2=CN=NC2NC2=C1C(=O)N(c1ccc(C)cc1)CC2 (stereo not drawn) [US20250313563, Compound 948241]
< 100 nM | 100 to 1000 nM | CCC1(c2cccc(-c3ccnc(C)c3F)c2)C2=C(CC(C)(C)NC2=O)NC2N=NC(C)=C21 (stereo not drawn) [US20250313563, Compound 947402]
> 5000 nM | > 5000 nM | CC1(C)CC(=O)C2=C(C1)NC1=C(CN=N1)C21CN(CC2CCCC2)C1 [US20250313563, Compound 943914]
100 to 1000 nM | > 5000 nM | CC[C@@]1(c2cccc(-c3ccnn3C)c2)C2=CN=NC2NC2=C1C(=O)NC(C)(C)C2 (stereo partly drawn) [US20250313563, Compound 927390]
> 5000 nM | > 5000 nM | CC[C@@]1(c2cccc(-c3ccnc(C)c3)c2)C2=CN=NC2NC2=C1C(=O)C[C@H](C)C2 (stereo partly drawn) [US20250313563, Compound 932638]
< 100 nM | < 100 nM | CCC1(c2cccc(-c3cn(C)nc3C)c2)C2=CN=NC2NC2=C1C(=O)N(C)C(C)(C)C2 (stereo not drawn) [US20250313563, Compound 948304]
< 100 nM | < 100 nM | CC1(C)CC(=O)C2=C(C1)NC1=C(CN=N1)C21CCN(S(=O)(=O)c2cnn3ccccc23)CC1 [US20250313563, Compound 947615]
< 100 nM | 100 to 1000 nM | COc1ccc(S(=O)(=O)N2CCC[C@]3(CC2)C2=CN=NC2NC2=C3C(=O)CC(C)(C)C2)cc1 (stereo partly drawn) [US20250313563, Compound 932641]
> 5000 nM | > 5000 nM | CC[C@@]1(c2cccc(C(C)C)c2)C2=CN=NC2NC2=C1C(=O)NC(C)(C)C2 (stereo partly drawn) [US20250313563, Compound 949752]
< 100 nM | < 100 nM and 1000 to 5000 nM | CC[C@@]1(c2cccc(N(C)c3ncccn3)c2)C2=C(CC(C)(C)NC2=O)NC2N=NC(F)=C21 (stereo partly drawn) [US20250313563, Compound 949648]
> 5000 nM | > 5000 nM | CC[C@]1(c2cccc(C(F)(F)F)c2)C2=C(N=NC2)NC2=C1C(=O)N(c1ccccc1)C2 [US20250313563, Compound 945376]
100 to 1000 nM | 100 to 1000 nM | CC[C@@]1(c2cccc(S(=O)(=O)CC3CC3)c2)C2=C(CC(C)(C)NC2=O)NC2N=NC(C(F)(F)F)=C21 (stereo partly drawn) [US20250313563, Compound 949186]
< 100 nM | < 100 nM | COCc1cccc(S(=O)(=O)N2CCC3(CC2)C2=C(N=NC2)NC2=C3C(=O)CC(C)(C)C2)c1 [US20250313563, Compound 947605]
> 5000 nM | > 5000 nM | CC[C@]1(c2cccc(-c3ccnc4ccc(C)cc34)c2)C2=CN=NC2NC2=C1C(=O)NC(C)(C)C2 (stereo partly drawn) [US20250313563, Compound 948658]
< 100 nM and 100 to 1000 nM | < 100 nM and 1000 to 5000 nM | CC[C@@]1(c2cccc(-c3ccnn3C)c2)C2=CN=NC2NC2=C1C(=O)NC1(CCC1)C2 (stereo partly drawn) [US20250313563, Compound 948358]
< 100 nM and 100 to 1000 nM | < 100 nM and 1000 to 5000 nM | CCC1(c2cccc(-c3ccnc(C)c3)c2)C2=C(CC(C)(C)NC2=O)NC2N=NC(Cl)=C21 (stereo not drawn) [US20250313563, Compound 948998]
< 100 nM | 100 to 1000 nM | CCC1(c2cccc(-c3ccnc(OC)c3C)c2)C2=CN=NC2NC2=C1C(=O)CC(C)(C)C2 (stereo not drawn) [US20250313563, Compound 932628]
